Results from PubChem BioAssay (NCI).
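Method: 48-hour compound exposure of cells in 96-well plates, five concentrations, linear interpolation of endpoints. At the TGI there is no net growth.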

Key:
Assay in all cases: growth of human tumour cells (NCI), 48 h
[1] = system: 786-0 renal
[2] = system: A498 renal
[3] = system: A549 NSCLC
[4] = system: ACHN renal
[5] = system: BT-549 breast
[6] = system: CAKI-1 renal
[7] = system: CCRF-CEM leukemia
[8] = system: COLO 205 colon
[9] = system: DU-145 prostate
[10] = system: EKVX NSCLC
[11] = system: HCC-2998 colon
[12] = system: HCT-116 colon
[13] = system: HCT-15 colon
[14] = system: HL-60(TB) leukemia
[15] = system: HOP-62 NSCLC
[16] = system: HOP-92 NSCLC
[17] = system: HS 578T breast
[18] = system: HT29 colon
[19] = system: IGROV1 ovarian
[20] = system: K-562 leukemia
[21] = system: KM12 colon
[22] = system: LOX IMVI melanoma
[23] = system: M14 melanoma
[24] = system: MCF7 breast
[25] = system: MDA-MB-231 breast
[26] = system: MDA-MB-435
[27] = system: MDA-N
[28] = system: MOLT-4 leukemia
[29] = system: NCI-H226 lung
[30] = system: NCI-H23 lung
[31] = system: NCI-H460 lung
[32] = system: NCI-H522 lung
[33] = system: NCI/ADR-RES ovarian
[34] = system: OVCAR-3 ovarian
[35] = system: OVCAR-4 ovarian
[36] = system: OVCAR-5 ovarian
[37] = system: OVCAR-8 ovarian
[38] = system: PC-3 prostate
[39] = system: RPMI-8226 leukemia
[40] = system: RXF 393 renal
[41] = system: SF-268 CNS
[42] = system: SF-295 CNS
[43] = system: SF-539 CNS
[44] = system: SK-MEL-2 melanoma
[45] = system: SK-MEL-28 melanoma
[46] = system: SK-MEL-5 melanoma
[47] = system: SK-OV-3 ovarian
[48] = system: SN12C renal
[49] = system: SNB-19 CNS
[50] = system: SNB-75 CNS
[51] = system: SR leukemia
[52] = system: SW-620 colon
[53] = system: T-47D breast
[54] = system: TK-10 renal
[55] = system: U251 CNS
[56] = system: UACC-257 melanoma
[57] = system: UACC-62 melanoma
[58] = system: UO-31 renal
[59] = system: MALME-3M melanoma

## COc1ccc(-c2cc(C3CC3)nc(SCC(=O)O)c2C#N)cc1
[1]
  TGI: > 100 µM
[2]
  TGI: > 100 µM
[3]
  TGI: > 100 µM
[4]
  TGI: > 100 µM
[5]
  TGI: > 100 µM
[6]
  TGI: > 100 µM
[7]
  TGI: > 100 µM
[8]
  TGI: > 100 µM
[9]
  TGI: > 100 µM
[10]
  TGI: > 100 µM
[11]
  TGI: > 100 µM
[12]
  TGI: > 100 µM
[13]
  TGI: > 100 µM
[14]
  TGI: > 100 µM
[15]
  TGI: > 100 µM
[16]
  TGI: > 100 µM
[17]
  TGI: > 100 µM
[18]
  TGI: > 100 µM
[19]
  TGI: > 100 µM
[20]
  TGI: > 100 µM
[21]
  TGI: > 100 µM
[22]
  TGI: > 100 µM
[23]
  TGI: > 100 µM
[24]
  TGI: > 100 µM
[25]
  TGI: > 100 µM
[26]
  TGI: > 100 µM
[27]
  TGI: > 100 µM
[28]
  TGI: > 100 µM
[29]
  TGI: > 100 µM
[30]
  TGI: > 100 µM
[31]
  TGI: > 100 µM
[32]
  TGI: 71.6 µM
[33]
  TGI: > 100 µM
[34]
  TGI: > 100 µM
[35]
  TGI: > 100 µM
[36]
  TGI: > 100 µM
[37]
  TGI: > 100 µM
[38]
  TGI: > 100 µM
[39]
  TGI: > 100 µM
[40]
  TGI: > 100 µM
[41]
  TGI: > 100 µM
[42]
  TGI: > 100 µM
[43]
  TGI: > 100 µM
[44]
  TGI: > 100 µM
[45]
  TGI: > 100 µM
[46]
  TGI: > 100 µM
[47]
  TGI: > 100 µM
[48]
  TGI: > 100 µM
[49]
  TGI: > 100 µM
[50]
  TGI: > 100 µM
[51]
  TGI: > 100 µM
[52]
  TGI: > 100 µM
[53]
  TGI: > 100 µM
[54]
  TGI: > 100 µM
[55]
  TGI: > 100 µM
[56]
  TGI: > 100 µM
[57]
  TGI: > 100 µM
[58]
  TGI: 11.1 µM

## C=C(Cl)COC(=O)Nc1cccc(Cl)c1
[1]
  TGI: 92.2 µM
[2]
  TGI: 90.4 µM
[3]
  TGI: > 100 µM
[4]
  TGI: > 100 µM
[5]
  TGI: 87.2 µM
[6]
  TGI: > 100 µM
[7]
  TGI: > 100 µM
[8]
  TGI: > 100 µM
[9]
  TGI: > 100 µM
[10]
  TGI: 59.1 µM
[11]
  TGI: > 100 µM
[12]
  TGI: 78.7 µM
[13]
  TGI: > 100 µM
[14]
  TGI: 94.6 µM
[15]
  TGI: > 100 µM
[16]
  TGI: 64.9 µM
[17]
  TGI: > 100 µM
[18]
  TGI: > 100 µM
[19]
  TGI: > 100 µM
[20]
  TGI: > 100 µM
[21]
  TGI: > 100 µM
[22]
  TGI: > 100 µM
[23]
  TGI: > 100 µM
[24]
  TGI: > 100 µM
[25]
  TGI: > 100 µM
[26]
  TGI: > 100 µM
[27]
  TGI: > 100 µM
[28]
  TGI: > 100 µM
[29]
  TGI: > 100 µM
[30]
  TGI: 90.2 µM
[31]
  TGI: > 100 µM
[32]
  TGI: 83.6 µM
[33]
  TGI: 99.7 µM
[34]
  TGI: > 100 µM
[35]
  TGI: > 100 µM
[36]
  TGI: > 100 µM
[37]
  TGI: > 100 µM
[38]
  TGI: 84.6 µM
[39]
  TGI: > 100 µM
[40]
  TGI: 77.6 µM
[41]
  TGI: > 100 µM
[42]
  TGI: 96.2 µM
[43]
  TGI: > 100 µM
[44]
  TGI: 58.5 µM
[45]
  TGI: > 100 µM
[46]
  TGI: 39.6 µM
[47]
  TGI: > 100 µM
[48]
  TGI: > 100 µM
[49]
  TGI: > 100 µM
[50]
  TGI: 83.7 µM
[51]
  TGI: > 100 µM
[52]
  TGI: > 100 µM
[53]
  TGI: > 100 µM
[54]
  TGI: > 100 µM
[55]
  TGI: > 100 µM
[56]
  TGI: > 100 µM
[57]
  TGI: 59.5 µM
[58]
  TGI: 44.9 µM

## O=C(CCCC1Cc2ccccc2C1=O)c1ccccc1 (stereo not given)
[1]
  TGI: > 100 µM
[2]
  TGI: > 100 µM
[3]
  TGI: > 100 µM
[4]
  TGI: > 100 µM
[5]
  TGI: > 100 µM
[6]
  TGI: > 100 µM
[7]
  TGI: > 100 µM
[8]
  TGI: > 100 µM
[9]
  TGI: > 100 µM
[10]
  TGI: > 100 µM
[11]
  TGI: > 100 µM
[12]
  TGI: > 100 µM
[13]
  TGI: > 100 µM
[14]
  TGI: 77.4 µM
[15]
  TGI: > 100 µM
[16]
  TGI: > 100 µM
[17]
  TGI: > 100 µM
[18]
  TGI: > 100 µM
[19]
  TGI: > 100 µM
[20]
  TGI: > 100 µM
[21]
  TGI: > 100 µM
[22]
  TGI: > 100 µM
[23]
  TGI: > 100 µM
[59]
  TGI: > 100 µM
[24]
  TGI: 56.3 µM
[25]
  TGI: > 100 µM
[26]
  TGI: > 100 µM
[27]
  TGI: > 100 µM
[28]
  TGI: > 100 µM
[29]
  TGI: > 100 µM
[30]
  TGI: > 100 µM
[31]
  TGI: > 100 µM
[32]
  TGI: > 100 µM
[33]
  TGI: 84.6 µM
[34]
  TGI: > 100 µM
[35]
  TGI: > 100 µM
[36]
  TGI: > 100 µM
[37]
  TGI: > 100 µM
[38]
  TGI: > 100 µM
[39]
  TGI: > 100 µM
[40]
  TGI: > 100 µM
[41]
  TGI: > 100 µM
[42]
  TGI: > 100 µM
[43]
  TGI: > 100 µM
[44]
  TGI: > 100 µM
[45]
  TGI: > 100 µM
[46]
  TGI: > 100 µM
[47]
  TGI: > 100 µM
[48]
  TGI: > 100 µM
[49]
  TGI: > 100 µM
[50]
  TGI: > 100 µM
[51]
  TGI: > 100 µM
[52]
  TGI: > 100 µM
[53]
  TGI: > 100 µM
[54]
  TGI: > 100 µM
[55]
  TGI: > 100 µM
[56]
  TGI: > 100 µM
[57]
  TGI: > 100 µM
[58]
  TGI: > 100 µM
